According to PubChem BioAssay AID1645868 (Buhrlage Lab, Dana-Farber Cancer Institute and Novartis …, 2021):
The source made the active and inactive calls.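 Rule for the calls: active = maximal percent inhibition of the deubiquitinase OTUD3 of at least 30% across the tested doses; inactive = the rest.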

These compounds were tested against OTU domain-containing protein 3 (Homo sapiens) (UniProt Q5T2D3) (assay: Validation of screening hits, potency titration, in vitro enzymatic, OTU domain-containing protein 3 DUB inhibitors (AID 1645868)). Conditions: purified OTUD3, ubiquitin-rhodamine cleavage fluorescence, 2 h.
Chain of OTU domain-containing protein 3 (Homo sapiens) (Q5T2D3 whole entry, looked up, the tested form may be a part): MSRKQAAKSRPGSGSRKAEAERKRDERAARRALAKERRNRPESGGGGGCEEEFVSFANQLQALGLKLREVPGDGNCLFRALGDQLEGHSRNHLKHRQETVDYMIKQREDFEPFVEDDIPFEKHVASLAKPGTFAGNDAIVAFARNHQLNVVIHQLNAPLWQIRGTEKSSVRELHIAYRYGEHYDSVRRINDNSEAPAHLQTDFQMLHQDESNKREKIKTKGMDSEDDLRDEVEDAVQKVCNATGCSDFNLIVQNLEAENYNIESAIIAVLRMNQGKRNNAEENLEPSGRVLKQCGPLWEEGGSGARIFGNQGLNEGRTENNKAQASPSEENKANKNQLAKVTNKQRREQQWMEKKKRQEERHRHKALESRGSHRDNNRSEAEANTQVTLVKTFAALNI
CC(C)(C)C(=O)Nc1ccc(C(=O)Nc2cccc(-c3nnc(-c4ccccc4)o3)c2)cc1 gave an IC50 of 16.8 µM.
In the case of CN(C)S(=O)(=O)N1CCCC2(C1)Nc1cccnc1NC2=NC1CCCC1 (stereo unspecified), the IC50 is reported as > 50 µM (inactive).
For CCN(CC(=O)Nc1cc(C)on1)c1cccc2ccccc12, the IC50 was > 50 µM (inactive).
Cc1cccc(S(=O)(=O)N2CCc3nc4ccccc4n3CC2)c1 showed an IC50 of 36.5 µM.
With COc1cc2c(c(OCC(=O)Nc3ccc4c(c3)OCCO4)c1)C(=O)O[C@@H](C)CCCC(=O)CCCCC2 the IC50 was 48.5 µM.
For CC(=O)c1ccc(NC(=O)CSc2nc(-c3ccccc3)nc3c2COC(C)(C)C3)cc1, the IC50 was > 50 µM (inactive).
In the case of O=C1CC(C(=O)Nc2ccccc2F)n2nc(-c3ccccc3)cc2N1 (stereo unspecified), the IC50 is reported as 25.1 µM.
For CC(C)NS(=O)(=O)c1cccc2c(NC(=O)C(Cc3ccccc3)NC(=O)c3ccccc3)cccc12 (stereo unspecified), the IC50 was > 50 µM (inactive).
For COc1cc(OC)c2c(c1)C(=O)C1=C(COC(C)(O)C1)C2=O (stereo unspecified), the IC50 was > 50 µM (inactive).
Cc1ccc(C(=O)Nc2nc3n(n2)C(c2ccccc2)CC(=O)N3)cc1 (stereo unspecified) was tested, and the IC50 was 28.6 µM.
COc1ccc(CC(NC(C)=O)C(=O)NC2CCN(c3c(Cc4ccccc4)c(C)nc4ncnn34)CC2)cc1OC (stereo unspecified) was tested, and the IC50 was > 50 µM (inactive).
For COc1ccc(C(=O)Nc2cc(F)c3nc(N4CCOCC4)ccc3c2)c(OC)c1, the IC50 was > 50 µM (inactive).
Nc1c(-c2ccc(Cl)cc2)cnc2cc(-c3ccc(Cl)c(Cl)c3)nn12 gave an IC50 of 16.1 µM.
For Cc1c(-c2nnc(-c3ccccn3)o2)nnn1-c1cccc(Cl)c1, the IC50 was 48.5 µM.
CSc1cccc(C(=O)Nc2ccc(-c3nc4ccccc4[nH]3)cc2)c1 showed an IC50 of 21.7 µM.
In the case of N#Cc1cc(C(=O)c2ccc(Cl)cc2)c[nH]1, the IC50 is reported as > 50 µM (inactive).
For COc1ccc(C2SCC(=O)Nc3c2c(=O)[nH]n3C2CCCCCC2)cc1 (stereo unspecified), the IC50 was 30.1 µM.
For O=c1c(S(=O)(=O)c2cc(F)cc(F)c2)c[nH]c2cc(Cl)ccc12, the IC50 was 40.1 µM.
With COc1cc(NC(=O)COC(=O)Cn2cnc3ccccc32)cc(OC)c1 the IC50 was > 50 µM (inactive).
With Cc1ccc(C)c(Nc2cc(C)nc3nc(-c4ccco4)nn23)c1 the IC50 was > 50 µM (inactive).
O=S(=O)(c1cccc(F)c1)N1CCc2nc3ccccc3n2CC1 gave an IC50 of 17.1 µM.
Compound Cc1cc(C)c2sc(N(CCCn3ccnc3)C(=O)Cc3ccccc3)nc2c1 has an IC50 of 24 µM.
For CCOC(=O)C1CCN(C(=O)c2ccc3c(c2)NC(=O)C2CCCN32)CC1 (stereo unspecified), the IC50 was > 50 µM (inactive).
With CC(C(=O)NCc1ccc(F)cc1)n1cccc1C(=O)c1ccccc1 (stereo unspecified) the IC50 was > 50 µM (inactive).
In the case of O=C(NCc1ccc(Cl)cc1)c1ccc(N2CCCS2(=O)=O)cc1, the IC50 is reported as > 50 µM (inactive).
For Cc1ccc(NC(=O)c2cnc(N3CCOCC3)nc2)cc1F, the IC50 was > 50 µM (inactive).
O=C(Nc1nc2c(ccc3ccccc32)s1)c1cccc(Br)c1 gave an IC50 of 24.6 µM.
For Cc1cccc(C(=O)N2CCN3Cc4ccccc4N(C)CC3C2)c1 (stereo unspecified), the IC50 was > 50 µM (inactive).
COc1ccc(NC(=O)c2ccc(Nc3nnc(C)c4ccccc34)cc2)cc1 was tested, and the IC50 was > 50 µM (inactive).
Work on CCC(=O)N1c2ccccc2NC2=C(C(=O)CC(c3ccccc3OCc3ccccc3)C2)C1c1ccccc1 (stereo unspecified) yielded an IC50 of 12.2 µM.
With COC(=O)c1ccc2c(=O)n(CCCCCC(=O)NCc3cccc(Cl)c3)c(=O)[nH]c2c1 the IC50 was 3.22 µM.
In the case of O=C(Cc1ccc(Cl)c(Cl)c1)OCC(=O)c1c[nH]c2ccccc12, the IC50 is reported as > 50 µM (inactive).
COc1c2n(c3ccccc13)[C@@]1(O)C(=O)N(C)C(=O)[C@@]1(O)c1c-2n(C)c2ccc(Cl)cc12 was tested, and the IC50 was > 50 µM (inactive).
For COCCN(C1CCN(CCc2ccc(Cl)cc2)CC1)S(=O)(=O)c1cccc2cccnc12, the IC50 was > 50 µM (inactive).
In the case of COc1cc(Cl)ccc1Nc1ncc(C(=O)Nc2cc(OC)c(OC)c(OC)c2)c2ccccc12, the IC50 is reported as 0.121 µM.
Compound CCCCCn1c(Sc2ccc(C)cc2)nc2c1c(=O)[nH]c(=O)n2C has an IC50 of 35.1 µM.
In the case of CCOc1ccc(NC(=O)COc2cccc3c2CCN(CC)C3=O)cc1, the IC50 is reported as > 50 µM (inactive).
CCn1c(SCc2cccc(C)c2)nnc1-c1cnccn1 was tested, and the IC50 was > 50 µM (inactive).
For CC(C)N1C[C@@H]2C[C@H](NS(=O)(=O)c3cccc(C#N)c3)CN2Cc2ccccc21, the IC50 was > 50 µM (inactive).
O=c1c2cc([N+](=O)[O-])ccc2nc(CN2CCN(c3ccccn3)CC2)n1-c1ccccc1F was tested, and the IC50 was > 50 µM (inactive).
For Cc1cc(O)c(=O)cc2c1C[C@H]1CC(C)(C)/C=C/C[C@@]3(C)Oc4cc(=O)c(O)cc(C)c4C[C@@H]3C[C@H](O)[C@]1(C)O2, the IC50 was > 50 µM (inactive).
In the case of COc1ccc2cc3c(nc2c1)OC(=O)N(CCc1cccc(F)c1)C3, the IC50 is reported as > 50 µM (inactive).
For Cc1ccc2c(c1)c(=O)c(C(=O)c1ccc(F)cc1)cn2CC(=O)Nc1ccc2c(c1)OCCO2, the IC50 was > 50 µM (inactive).
For O=C(CCCCn1c(=O)c2ccccc2n(CC(=O)Nc2ccc(F)c(Cl)c2)c1=O)NCc1ccco1, the IC50 was > 50 µM (inactive).
With CCC(=O)Nc1nc2cc(NC(=O)Nc3cc(C)cc(C)c3)ccc2s1 the IC50 was 7.84 µM.
Cc1ccc2c(=O)c3c([nH]c2c1C)CCN(CC(=O)NCc1ccc2c(c1)OCO2)C3 was tested, and the IC50 was > 50 µM (inactive).
In the case of COC(=O)c1cc(C#N)c(NCc2ccccc2)nc1C, the IC50 is reported as > 50 µM (inactive).
COc1cccc(NC(=O)Nc2ccc(CCc3nc4ccccc4[nH]3)cc2)c1 was tested, and the IC50 was 48.5 µM.
For CC1(O)CC(=O)c2c(cc3cc(O)cc(O)c3c2O)C1 (stereo unspecified), the IC50 was 0.188 µM.
For O=C(CCc1ccc(S(=O)(=O)N2CCOCC2)cc1)Nc1ccc2c(c1)OCCO2, the IC50 was > 50 µM (inactive).
For CCCCNC(=O)c1cc2cccnc2n(Cc2ccccc2)c1=O, the IC50 was > 50 µM (inactive).
Cc1ccccc1NC(=O)Cn1cc(-c2nc(C3CC3)no2)ccc1=O was tested, and the IC50 was > 50 µM (inactive).
For COc1ccc(CN2C[C@@H]3C[C@]3(c3ccccc3)C(=O)c3ncccc32)cc1, the IC50 was > 50 µM (inactive).
In the case of CC(=O)NCc1nc(-c2ccc3c(c2)nc(C)c(=O)n3C2CCCC2)no1, the IC50 is reported as > 50 µM (inactive).
For O=C(Nc1cc(F)c2nc(N3CCOCC3)ccc2c1)C1CC1, the IC50 was > 50 µM (inactive).
COc1ccc(-n2nnc(C(=O)Nc3ccc(F)cc3)c2C)cc1 was tested, and the IC50 was > 50 µM (inactive).
In the case of COc1ccc(S(=O)(=O)Nc2ccc(Nc3ccc(-n4cccn4)nn3)cc2)cc1, the IC50 is reported as > 50 µM (inactive).
Work on O=C(CN1C=NC2=NS(=O)(=O)c3ccccc3N21)Nc1cc(F)ccc1F yielded an IC50 of 31.8 µM.
In the case of O=C(/C=C/c1ccc(F)cc1)N1CCC(Cc2ccccc2)CC1, the IC50 is reported as 49.9 µM.
For COc1cc(OC)cc(C(=O)Nc2cnc(-c3ccccc3)nc2)c1, the IC50 was > 50 µM (inactive).
O=c1ccc(-c2noc(-c3ccc4cc[nH]c4c3)n2)c[nH]1 was tested, and the IC50 was > 50 µM (inactive).
For CSc1ccccc1C(=O)Nc1sc2c(c1C(N)=O)CCC(C)C2 (stereo unspecified), the IC50 was 22.1 µM.
With CCN1C[C@@H]2C[C@]2(c2ccccc2OC)C(=O)c2ncccc21 the IC50 was > 50 µM (inactive).
With Cc1ccc(-c2csc(-n3ncc(C(=O)N4CCN(C(=O)Nc5cccc6ccccc56)C(C)C4)c3C(C)C)n2)cc1 (stereo unspecified) the IC50 was > 50 µM (inactive).
For Cc1ccc(-c2ccc(N3CCOCC3)nn2)cc1S(=O)(=O)N1CCOCC1, the IC50 was > 50 µM (inactive).
For N#Cc1ccc(COC(=O)c2ccc3ccccc3n2)cc1, the IC50 was > 50 µM (inactive).
For CCN(CC)C(=O)c1sc(NC(=O)/C=C/c2c(F)cccc2Cl)c(C#N)c1C, the IC50 was > 50 µM (inactive).
For Cc1ccc(S(=O)(=O)N2CCCCC2)cc1NC(=O)Cc1cccc(F)c1, the IC50 was > 50 µM (inactive).
In the case of Cn1c(=O)c2c(nc3n(-c4ccccc4F)c(-c4ccccc4)cn23)n(C)c1=O, the IC50 is reported as > 50 µM (inactive).
For COc1ccccc1CNC(=O)C1CCCN(c2nc3ccsc3c(=O)s2)C1 (stereo unspecified), the IC50 was > 50 µM (inactive).
CC1=C(c2ccc(F)cc2)S(=O)(=O)N=C1Nc1ccc(Cl)cc1 was tested, and the IC50 was > 50 µM (inactive).
COC(=O)COc1ccc(/C=N/NC(=O)c2ccc(CN3CCc4ccccc4C3)cc2)cc1 showed an IC50 of 43.8 µM.
For Cc1ccccc1Cn1cc(SCC(=O)Nc2ccc3c(c2)OCCO3)c2ccccc21, the IC50 was > 50 µM (inactive).
In the case of Cc1ccc(NC(=O)Cn2cc(S(=O)(=O)N3CCCC3)ccc2=O)cc1, the IC50 is reported as 27.6 µM.
For Cc1nn(-c2nc3ccccc3[nH]2)c2c1C(c1cccs1)CC(=O)N2 (stereo unspecified), the IC50 was > 50 µM (inactive).
O=c1c2cnc3nc(-c4cccnc4)nn3c2ccn1CCc1ccccc1 was tested, and the IC50 was > 50 µM (inactive).
In the case of O=C(COC(=O)CCc1ccc(S(=O)(=O)N2CCOCC2)cc1)Nc1ccc2c(c1)OCCO2, the IC50 is reported as > 50 µM (inactive).
Compound Cc1ccc(NC(=O)c2cnc3c(c2)c(=O)n(C)c(=O)n3C)cc1 has an IC50 of 20 µM.
With Cn1cc(-c2cnc(-c3cccc(F)c3)nc2)cc1C(=O)NCc1cccnc1 the IC50 was > 50 µM (inactive).
Compound CN(Cc1ccccc1)S(=O)(=O)c1ccc2[nH]cc(C(=O)NCc3cccs3)c(=O)c2c1 has an IC50 of 3.15 µM.
O=C(Cn1cncc(C(=O)NC2CCCC2)c1=O)Nc1cccc(F)c1 gave an IC50 of 38.7 µM.
Cc1ccc(C)c(S(=O)(=O)N2CCC3(CC2)NC(=O)c2ccccc2N3)c1 was tested, and the IC50 was > 50 µM (inactive).
O=C(Cn1nnc(-c2ccc(F)cc2)n1)NCCc1ccccc1 was tested, and the IC50 was > 50 µM (inactive).
Cc1cccc(-c2nc3n(CC(=O)Nc4ccc(Cl)cc4)c(C)cc(=O)n3n2)c1 showed an IC50 of 2 µM.
Cc1ccccc1Cn1ccc2ccn(Cc3cccnc3)c2c1=O was tested, and the IC50 was > 50 µM (inactive).
With O=[N+]([O-])c1ccccc1C(c1c[nH]c2ccccc12)c1c[nH]c2ccccc12 the IC50 was 49.4 µM.
For CCCCNC(=O)C1Sc2nnc(-c3ccccc3)n2NC1c1ccccc1 (stereo unspecified), the IC50 was 17.9 µM.
In the case of O=C(/C=C/c1ccc(F)cc1)N1CCc2ccccc2C1, the IC50 is reported as > 50 µM (inactive).
With COc1ccc(C(=O)Nc2ccccc2C(=O)NCc2ccccc2)cc1 the IC50 was > 50 µM (inactive).
CCOC(=O)c1ccc(NC(=O)C[n+]2cc(-c3ccc(Cl)cc3)n3c2CCC3)cc1 was tested, and the IC50 was > 50 µM (inactive).
In the case of Cc1cc(C(=O)Nc2ccc3nc(N4CCN(c5ncccn5)CC4)cc(C)c3c2)ccc1[N+](=O)[O-], the IC50 is reported as > 50 µM (inactive).
In the case of Cc1nnc(NCc2cccnc2)c2c1nnn2Cc1ccccc1Cl, the IC50 is reported as > 50 µM (inactive).
With COc1ccc(-c2ocnc2C(=O)Nc2cccc(Cl)c2C)cc1OC the IC50 was > 50 µM (inactive).
With CC1CCCCN1c1nc(F)c2c(c1F)S(=O)(=O)CCN2Cc1ccccc1 (stereo unspecified) the IC50 was > 50 µM (inactive).
CC(Sc1n[nH]c2nc3ccccc3n12)C(=O)Nc1ccc2c(c1)OCCO2 (stereo unspecified) was tested, and the IC50 was > 50 µM (inactive).
For O=C(Nc1ccc2c(c1)OCCO2)C1CCN(C(=O)c2ccccc2)CC1, the IC50 was > 50 µM (inactive).
